Test systems include 786-0 renal; SR leukemia; CCRF-CEM leukemia; HOP-92 NSCLC; OVCAR-5 ovarian; OVCAR-4 ovarian; SNB-75 CNS; HL-60(TB) leukemia; ACHN renal; HOP-62 NSCLC.
Common to all, as to experiment: NCI tumour cell line growth inhibition, 48 h

The results in this text go back to PubChem BioAssay (NCI).

Structures are written as SMILES. Values joined by “and” are separate entries in the source; they are usually repeats but may differ in a detail not shown here. Identical values can stand only once.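 Where inhibition never reached the appropriate level, the endpoint shown equals the highest concentration tested. Otherwise, values were interpolated linearly from a five-concentration, 48-hour dose response in 96-well plates. Here, GI50 denotes the concentration required for 50% inhibition of growth. At the TGI there is no net growth.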

For `CCCC[C@@H]1NC(=O)[C@H](CCCCN)NC(=O)[C@H](CCCNC(=N)N)NC(=O)[C@H](CC(C)C)NC(=O)[C@@H](NC(=O)[C@H](Cc2cccc(Cl)c2)NC(=O)[C@@H]2CCCN2C(=O)[C@@H](NC(C)=O)C(C)C)CCSSC[C@@H](C(=O)N[C@@H](CCCCN)C(=O)N2CCC[C@H]2C(=O)N2CCC[C@H]2C(=O)N[C@@H](CCC(=O)O)C(N)=O)NC(=O)[C@H](Cc2ccccc2)NC(=O)[C@H](CO)NC(=O)[C@H](C)NC(=O)[C@@H]2CCCN2C1=O`, the GI50 with 786-0 renal, in the assay on SR leukemia, with CCRF-CEM leukemia, with HOP-92 NSCLC, in the assay with OVCAR-5 ovarian and in the assay on OVCAR-4 ovarian was over 50 µM each time. Besides, the GI50 in the assay on SNB-75 CNS, in the assay with HL-60(TB) leukemia, in the assay on ACHN renal and with HOP-62 NSCLC was over 50 µM each time. For the same compound, the TGI with 786-0 renal, in the assay with SR leukemia, in the assay with CCRF-CEM leukemia, in the assay with HOP-92 NSCLC, in the assay on OVCAR-5 ovarian and in the assay on OVCAR-4 ovarian was over 50 µM throughout. Besides, the TGI with SNB-75 CNS, in the assay with HL-60(TB) leukemia, in the assay with ACHN renal and in the assay with HOP-62 NSCLC was over 50 µM throughout.

On to `O=C(Cn1ccnc1[N+](=O)[O-])N(CCO)CCO`, for which the TGI in the assay with 786-0 renal was over 250 µM; in the assay on SR leukemia, over 79 µM; with CCRF-CEM leukemia it was over 580 µM; in the assay with HOP-92 NSCLC, over 1250 µM; with OVCAR-5 ovarian, over 1250 µM; with OVCAR-4 ovarian it was over 1250 µM. Also, the TGI with SNB-75 CNS is 250 µM and > 1250 µM; in the assay on HL-60(TB) leukemia, over 1250 µM; in the assay on ACHN renal it was over 250 µM; in the assay on HOP-62 NSCLC it was over 250 µM. The GI50 is over 580 µM with CCRF-CEM leukemia; over 250 µM in the assay with HOP-92 NSCLC; over 1250 µM in the assay on OVCAR-5 ovarian; over 1250 µM in the assay with OVCAR-4 ovarian; 182 µM in the assay on SNB-75 CNS; over 1250 µM in the assay with HL-60(TB) leukemia. Besides, the GI50 with HOP-62 NSCLC is 22.3 µM.

Regarding `CC(=O)O[C@]1(C(C)=O)CC[C@H]2[C@@H]3C[C@H](C)C4=CC(=O)C=C[C@]4(C)[C@@]3(F)[C@@H](O)C[C@@]21C`, the TGI was over 100 µM with 786-0 renal; over 100 µM in the assay on SR leukemia; over 100 µM in the assay with CCRF-CEM leukemia; over 100 µM with HOP-92 NSCLC; over 100 µM with OVCAR-5 ovarian; 90.8 µM in the assay on OVCAR-4 ovarian. Further, the TGI in the assay on SNB-75 CNS, in the assay on HL-60(TB) leukemia, with ACHN renal and in the assay with HOP-62 NSCLC was over 100 µM throughout.

In the case of `Cc1ccc(NS(=O)(=O)c2ccc(-c3cnc(C4CC4)o3)cc2)cc1`, the GI50 in the assay with 786-0 renal is 6.4 µM; with SR leukemia it was 0.316 µM; in the assay on CCRF-CEM leukemia it was 3.31 µM; in the assay with HOP-92 NSCLC, 2.14 µM; with OVCAR-5 ovarian, 9.28 µM; with OVCAR-4 ovarian, 3.87 µM. Also, the GI50 with SNB-75 CNS was 1.13 µM; in the assay with HL-60(TB) leukemia, 2.47 µM; with ACHN renal, 4.43 µM; in the assay with HOP-62 NSCLC it was 3.13 µM. Besides, the TGI was 21 µM in the assay on 786-0 renal; 17.7 µM in the assay on SR leukemia; 34.6 µM with CCRF-CEM leukemia; 13.2 µM in the assay with HOP-92 NSCLC; 22.6 µM in the assay on OVCAR-5 ovarian; 17.6 µM in the assay on OVCAR-4 ovarian. The TGI with SNB-75 CNS was determined as 4.25 µM; in the assay on HL-60(TB) leukemia it was 9.71 µM; with ACHN renal, 18.4 µM; with HOP-62 NSCLC it was 16.7 µM.

Regarding `OCC1SC(n2cnc3cncnc32)C(O)C1O` (configuration not stated), the GI50 is over 100 µM with 786-0 renal; over 100 µM in the assay on SR leukemia; over 100 µM in the assay with CCRF-CEM leukemia; 48.1 µM in the assay on HOP-92 NSCLC; over 100 µM in the assay on OVCAR-5 ovarian; over 100 µM in the assay on OVCAR-4 ovarian. Besides, the GI50 in the assay on SNB-75 CNS, with HL-60(TB) leukemia, in the assay with ACHN renal and with HOP-62 NSCLC was over 100 µM each time. Moreover, the TGI with 786-0 renal, with SR leukemia, in the assay with CCRF-CEM leukemia, in the assay on HOP-92 NSCLC, in the assay with OVCAR-5 ovarian and in the assay with OVCAR-4 ovarian was over 100 µM in each case. Besides, the TGI with SNB-75 CNS, with HL-60(TB) leukemia, with ACHN renal and in the assay on HOP-62 NSCLC was over 100 µM throughout.
